The source of these data is ChEMBL document CHEMBL1151840, “Synthetic oligoribonucleotides containing arabinonucleotides act as agonists of TLR7 and 8” (Bioorg Med Chem Lett, 2009).

In this data set the test system is Serum. In words: Stability in human serum assessed as full-length compound remaining after 10 mins by anion-exchange HPLC. The format is ADME, cell-free. To be noted: 10 min.

As to `Nc1ccn([C@@H]2O[C@H](COP(=O)(S)O[C@H]3[C@@H](O)[C@H](n4cnc5c(N)ncnc54)O[C@@H]3COP(=O)(S)O[C@H]3[C@@H](O)[C@H](n4cnc5c(=O)[nH]c(N)nc54)O[C@@H]3COP(=O)(S)O[C@H]3[C@@H](O)[C@H](n4ccc(=O)[nH]c4=O)O[C@@H]3COP(=O)(S)O[C@H]3[C@@H](O)[C@H](n4cnc5c(=O)[nH]c(N)nc54)O[C@@H]3COP(=O)(S)O[C@H]3[C@@H](O)[C@H](n4ccc(=O)[nH]c4=O)O[C@@H]3COP(=O)(S)O[C@H]3[C@@H](O)[C@H](n4cnc5c(=O)[nH]c(N)nc54)O[C@@H]3COP(=O)(S)O[C@H]3[C@@H](O)[C@H](n4ccc(=O)[nH]c4=O)O[C@@H]3COP(=O)(S)O[C@H]3[C@@H](O)[C@H](n4ccc(=O)[nH]c4=O)O[C@@H]3COP(=O)(S)O[C@H]3[C@@H](O)[C@H](n4cnc5c(=O)[nH]c(N)nc54)O[C@@H]3COP(=O)(S)O[C@H]3[C@@H](O)[C@H](n4ccc(=O)[nH]c4=O)O[C@H]3CO)[C@@H](OP(=O)(S)OCC(O)COP(=O)(S)O[C@H]3[C@@H](O)[C@H](n4ccc(N)nc4=O)O[C@@H]3COP(=O)(S)O[C@H]3[C@@H](O)[C@H](n4cnc5c(N)ncnc54)O[C@@H]3COP(=O)(S)O[C@H]3[C@@H](O)[C@H](n4cnc5c(=O)[nH]c(N)nc54)O[C@@H]3COP(=O)(S)O[C@H]3[C@@H](O)[C@H](n4ccc(=O)[nH]c4=O)O[C@@H]3COP(=O)(S)O[C@H]3[C@@H](O)[C@H](n4cnc5c(=O)[nH]c(N)nc54)O[C@@H]3COP(=O)(S)O[C@H]3[C@@H](O)[C@H](n4ccc(=O)[nH]c4=O)O[C@@H]3COP(=O)(S)O[C@H]3[C@@H](O)[C@H](n4cnc5c(=O)[nH]c(N)nc54)O[C@@H]3COP(=O)(S)O[C@H]3[C@@H](O)[C@H](n4ccc(=O)[nH]c4=O)O[C@@H]3COP(=O)(S)O[C@H]3[C@@H](O)[C@H](n4ccc(=O)[nH]c4=O)O[C@@H]3COP(=O)(S)O[C@H]3[C@@H](O)[C@H](n4cnc5c(=O)[nH]c(N)nc54)O[C@@H]3COP(=O)(S)O[C@H]3[C@@H](O)[C@H](n4ccc(=O)[nH]c4=O)O[C@@H]3CO)[C@H]2O)c(=O)n1` (stereo in doubt; 5), the Stability came out at 75%.
